ChEMBL document CHEMBL2424579, “Quinazolin-4-one derivatives as selective histone deacetylase-6 inhibitors for the treatment of Alzheimer's disease” (J Med Chem, 2013)
Calls of active or inactive are those of the source. No cut-off for these calls is given here.

Experiments:
Histone deacetylase 8 = target: T1, Histone deacetylase 8 (Homo sapiens, UniProt Q9BY41); experiment: Inhibition of human recombinant HDAC8 expressed in baculovirus/sf9 cells using RHKAcKAc as substrate
T1 sequence (Q9BY41 whole entry): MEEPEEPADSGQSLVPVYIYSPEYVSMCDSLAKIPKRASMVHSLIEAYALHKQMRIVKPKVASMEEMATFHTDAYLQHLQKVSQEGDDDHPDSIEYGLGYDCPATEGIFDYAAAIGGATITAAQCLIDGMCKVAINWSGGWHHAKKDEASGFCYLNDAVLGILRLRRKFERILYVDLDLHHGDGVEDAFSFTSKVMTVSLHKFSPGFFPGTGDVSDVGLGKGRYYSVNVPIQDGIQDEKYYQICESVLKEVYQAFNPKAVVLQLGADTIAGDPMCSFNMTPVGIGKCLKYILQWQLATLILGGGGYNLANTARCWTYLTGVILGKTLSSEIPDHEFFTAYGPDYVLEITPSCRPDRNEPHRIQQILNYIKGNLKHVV

[1] = target: T2, Protein deacetylase HDAC6 (Homo sapiens, UniProt Q9UBN7); experiment: Inhibition of human recombinant HDAC6 expressed in baculovirus/sf9 cells using RHKKAc as substrate
T2 sequence (Q9UBN7 whole entry): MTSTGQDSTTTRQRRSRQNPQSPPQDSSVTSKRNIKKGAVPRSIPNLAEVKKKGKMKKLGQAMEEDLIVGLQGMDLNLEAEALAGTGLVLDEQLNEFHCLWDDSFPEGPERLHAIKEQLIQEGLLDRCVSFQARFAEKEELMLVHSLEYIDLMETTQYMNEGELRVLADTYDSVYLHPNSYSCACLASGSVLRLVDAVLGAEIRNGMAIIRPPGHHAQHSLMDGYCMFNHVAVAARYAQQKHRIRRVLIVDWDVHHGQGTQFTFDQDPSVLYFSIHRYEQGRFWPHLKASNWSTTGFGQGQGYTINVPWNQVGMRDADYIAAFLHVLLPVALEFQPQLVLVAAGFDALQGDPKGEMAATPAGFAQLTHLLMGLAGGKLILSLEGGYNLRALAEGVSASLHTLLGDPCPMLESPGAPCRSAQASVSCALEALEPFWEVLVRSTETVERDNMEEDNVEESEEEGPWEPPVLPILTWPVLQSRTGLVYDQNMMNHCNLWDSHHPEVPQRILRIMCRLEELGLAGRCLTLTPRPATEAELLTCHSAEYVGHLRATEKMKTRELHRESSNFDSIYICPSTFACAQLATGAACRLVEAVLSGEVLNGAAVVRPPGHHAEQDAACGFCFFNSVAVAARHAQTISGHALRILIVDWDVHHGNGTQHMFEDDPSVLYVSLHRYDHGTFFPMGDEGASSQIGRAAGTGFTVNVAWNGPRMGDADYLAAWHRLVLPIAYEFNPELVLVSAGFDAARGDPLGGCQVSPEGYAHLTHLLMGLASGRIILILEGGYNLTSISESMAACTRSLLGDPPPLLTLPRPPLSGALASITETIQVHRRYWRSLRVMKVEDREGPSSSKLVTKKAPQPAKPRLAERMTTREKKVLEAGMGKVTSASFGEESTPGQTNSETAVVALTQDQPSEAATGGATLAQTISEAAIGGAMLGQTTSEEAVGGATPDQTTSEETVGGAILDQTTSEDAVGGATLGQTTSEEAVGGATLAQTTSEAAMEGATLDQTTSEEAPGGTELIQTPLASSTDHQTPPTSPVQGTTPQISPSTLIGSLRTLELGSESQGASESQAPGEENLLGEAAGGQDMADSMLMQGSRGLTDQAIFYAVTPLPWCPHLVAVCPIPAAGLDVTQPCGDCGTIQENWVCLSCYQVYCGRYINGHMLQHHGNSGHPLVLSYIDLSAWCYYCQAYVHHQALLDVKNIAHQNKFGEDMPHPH

Mus musculus [2] = experiment: Antialzheimer activity in wild type learning-impaired Balb/c mouse model with hippocampal lesions assessed as increase in acetylated alpha-tubulin level in hippocampus region at 10 mg/kg, ip administered for 30 days by rotarod test
Histone deacetylase 2 = Histone deacetylase 2 (Homo sapiens, UniProt Q92769); experiment: Inhibition of human recombinant HDAC2 expressed in baculovirus/sf9 cells using RHKKAc as substrate
PC-12 [3] = experiment: Inhibition of HDAC6 in rat PC12 cells assessed as induction of alpha-tubulin acetylation after 48 hrs by Western blotting analysis; format: cell-based
Histone deacetylase 11 = target: T3, Histone deacetylase 11 (Homo sapiens, UniProt Q96DB2); experiment: Inhibition of human recombinant HDAC11 expressed in baculovirus/sf9 cells using RHKKAc as substrate
T3 sequence (Q96DB2 whole entry): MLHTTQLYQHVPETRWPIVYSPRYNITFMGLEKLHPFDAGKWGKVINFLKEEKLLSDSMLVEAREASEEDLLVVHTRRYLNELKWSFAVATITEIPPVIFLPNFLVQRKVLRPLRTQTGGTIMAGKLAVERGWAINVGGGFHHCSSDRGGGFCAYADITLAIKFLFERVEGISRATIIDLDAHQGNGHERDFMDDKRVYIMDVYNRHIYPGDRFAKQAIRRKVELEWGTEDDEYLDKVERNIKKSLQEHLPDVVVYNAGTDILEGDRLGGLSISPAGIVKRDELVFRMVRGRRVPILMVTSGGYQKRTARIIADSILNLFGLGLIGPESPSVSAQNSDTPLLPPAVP

[4] = target: T4, Polyamine deacetylase HDAC10 (Homo sapiens, UniProt Q969S8); experiment: Inhibition of human recombinant HDAC10 expressed in baculovirus/sf9 cells using RHKKAc as substrate
T4 sequence (Q969S8 whole entry): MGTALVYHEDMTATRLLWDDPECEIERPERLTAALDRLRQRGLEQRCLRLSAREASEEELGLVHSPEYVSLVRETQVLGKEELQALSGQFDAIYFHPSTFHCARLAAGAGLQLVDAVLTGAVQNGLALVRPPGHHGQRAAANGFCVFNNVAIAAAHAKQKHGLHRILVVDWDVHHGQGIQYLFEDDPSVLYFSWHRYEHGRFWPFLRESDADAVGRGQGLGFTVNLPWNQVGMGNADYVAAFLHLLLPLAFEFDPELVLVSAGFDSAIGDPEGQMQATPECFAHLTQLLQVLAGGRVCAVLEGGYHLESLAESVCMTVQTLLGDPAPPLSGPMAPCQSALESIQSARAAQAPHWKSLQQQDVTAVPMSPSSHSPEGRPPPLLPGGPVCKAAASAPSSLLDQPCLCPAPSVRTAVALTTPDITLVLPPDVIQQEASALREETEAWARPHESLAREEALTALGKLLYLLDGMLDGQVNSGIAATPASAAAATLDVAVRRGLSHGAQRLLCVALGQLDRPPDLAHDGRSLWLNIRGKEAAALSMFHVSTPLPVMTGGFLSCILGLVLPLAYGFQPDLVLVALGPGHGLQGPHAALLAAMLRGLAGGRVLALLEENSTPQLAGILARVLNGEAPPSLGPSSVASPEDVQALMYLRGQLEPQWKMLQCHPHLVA

[5] = target: Poly [ADP-ribose] polymerase 1 (Homo sapiens) (UniProt P09874); experiment: Inhibition of PARP1 (unknown origin) up to 25 uM
PC-12 [6] = experiment: Induction iof GAP-43 protein expression in rat PC12 cells after 48 hrs by Western blotting analysis; format: functional, cell-based
SH-SY5Y [7] = experiment: Induction of neurite outgrowth in human SH-SY5Y cells at 10 uM after 5 days; format: functional, cell-based
PC-12 [8] = experiment: Induction of neurite outgrowth in rat PC12 cells at 10 uM after 5 days; format: functional, cell-based
[9] = Cytotoxicity against human SH-SY5Y cells at 25 uM; format: cell-based
Mus musculus [10] = experiment: Antialzheimer activity in wild type learning-impaired Balb/c mouse model with hippocampal lesions at 10 mg/kg, ip administered for 30 days by rotarod test relative to vehicle-treated control; conditions: Hippocampus, TDE = time-dependent effect
PC-12 [11] = experiment: Induction iof GAP-43 protein expression in rat PC12 cells at 0.1 uM after 48 hrs by Western blotting analysis; format: functional, cell-based
Vero = experiment: Cytotoxicity against african green monkey Vero cells at 25 uM; format: cell-based; conditions: chlorocebus sabaeus
PC-12 [12] = experiment: Cytotoxicity against rat PC12 cells at 25 uM; format: cell-based; conditions: pc-12, 25 µM
Homo sapiens [13] = organism: Homo sapiens; experiment: Selectivity index, ratio of IC50 for human recombinant HDAC1 to IC50 for human recombinant HDAC6
[14] = target: T5, Amyloid-beta precursor protein (Homo sapiens, UniProt P05067); experiment: Inhibition of amyloid beta aggregation (unknown origin) after 4 hrs by thioflavin S assay in absence of Zn2+
Homo sapiens [15] = organism: Homo sapiens; experiment: Selectivity index, ratio of IC50 for human recombinant HDAC8 to IC50 for human recombinant HDAC6
[16] = target: T5, Amyloid-beta precursor protein; experiment: Inhibition of amyloid beta aggregation (unknown origin) after 4 hrs by thioflavin S assay in presence of Zn2+
Histone deacetylase 1 = Histone deacetylase 1 (Homo sapiens, UniProt Q13547); experiment: Inhibition of human recombinant HDAC1 expressed in baculovirus/sf9 cells using RHKKAc as substrate
PC-12 [17] = experiment: Induction of neurite outgrowth in rat PC12 cells after 5 days; format: functional, cell-based; conditions: PC-12, 120 h
SH-SY5Y [18] = experiment: Increase of synaptic activity in human SH-SY5Y cells after 5 days by fluorescence assay; format: functional, cell-based; conditions: 120 h
SH-SY5Y [19] = experiment: Induction of neurite outgrowth in human SH-SY5Y cells after 5 days; format: functional, cell-based; conditions: 120 h
PC-12 [20] = experiment: Increase of synaptic activity in rat PC12 cells after 5 days by fluorescence assay; format: functional, cell-based; conditions: PC-12, 120 h
PC-12 [21] = experiment: Inhibition of HDAC6 in rat PC12 cells assessed as induction of alpha-tubulin acetylation at 10 uM after 48 hrs by Western blotting analysis; format: cell-based
PC-12 [22] = experiment: Inhibition of HDAC6 in rat PC12 cells assessed as acetylation of histone H3 at 10 uM after 48 hrs by Western blotting analysis; format: cell-based

Sequence of Histone deacetylase 2 (Q92769 whole entry): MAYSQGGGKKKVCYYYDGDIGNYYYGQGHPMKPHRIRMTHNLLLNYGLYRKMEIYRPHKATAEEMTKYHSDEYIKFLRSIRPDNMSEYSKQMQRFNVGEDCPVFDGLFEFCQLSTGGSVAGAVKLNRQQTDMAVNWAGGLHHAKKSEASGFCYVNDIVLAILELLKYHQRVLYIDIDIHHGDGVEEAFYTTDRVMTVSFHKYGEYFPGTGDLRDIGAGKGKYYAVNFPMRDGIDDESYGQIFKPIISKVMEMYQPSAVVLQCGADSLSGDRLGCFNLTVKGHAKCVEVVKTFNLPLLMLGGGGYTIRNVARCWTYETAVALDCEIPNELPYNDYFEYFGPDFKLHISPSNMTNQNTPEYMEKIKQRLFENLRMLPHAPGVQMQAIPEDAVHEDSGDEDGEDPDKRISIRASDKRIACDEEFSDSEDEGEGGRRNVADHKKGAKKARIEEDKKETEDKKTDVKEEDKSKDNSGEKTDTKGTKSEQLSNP
Sequence of Poly [ADP-ribose] polymerase 1 (Homo sapiens) (P09874 whole entry): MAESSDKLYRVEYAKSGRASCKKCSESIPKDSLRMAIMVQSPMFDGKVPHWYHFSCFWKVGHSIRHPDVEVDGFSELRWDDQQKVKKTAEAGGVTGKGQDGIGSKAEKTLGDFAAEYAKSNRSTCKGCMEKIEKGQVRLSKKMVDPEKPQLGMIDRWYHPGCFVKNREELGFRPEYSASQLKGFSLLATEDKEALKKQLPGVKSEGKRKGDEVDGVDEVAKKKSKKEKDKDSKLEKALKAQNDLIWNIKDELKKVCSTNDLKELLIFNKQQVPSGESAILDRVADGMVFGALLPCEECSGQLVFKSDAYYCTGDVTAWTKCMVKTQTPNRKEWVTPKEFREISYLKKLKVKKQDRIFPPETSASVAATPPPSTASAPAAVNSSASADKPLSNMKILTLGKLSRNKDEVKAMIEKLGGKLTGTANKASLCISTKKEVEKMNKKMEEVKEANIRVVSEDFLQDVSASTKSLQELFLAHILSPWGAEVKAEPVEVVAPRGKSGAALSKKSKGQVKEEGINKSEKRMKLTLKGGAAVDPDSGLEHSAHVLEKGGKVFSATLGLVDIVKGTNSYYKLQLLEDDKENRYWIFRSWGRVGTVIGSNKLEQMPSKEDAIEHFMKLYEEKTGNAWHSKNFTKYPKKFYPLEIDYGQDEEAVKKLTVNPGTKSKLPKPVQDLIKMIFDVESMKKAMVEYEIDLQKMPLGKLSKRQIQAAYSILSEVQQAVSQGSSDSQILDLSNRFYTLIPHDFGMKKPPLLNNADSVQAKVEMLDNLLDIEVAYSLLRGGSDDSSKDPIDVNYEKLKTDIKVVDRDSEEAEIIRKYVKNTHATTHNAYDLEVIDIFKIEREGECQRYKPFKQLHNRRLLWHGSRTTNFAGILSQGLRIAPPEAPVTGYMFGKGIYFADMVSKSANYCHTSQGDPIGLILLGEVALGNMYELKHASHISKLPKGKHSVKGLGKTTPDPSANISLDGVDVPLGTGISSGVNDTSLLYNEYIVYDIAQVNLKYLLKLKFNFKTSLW
T5 sequence (P05067 whole entry): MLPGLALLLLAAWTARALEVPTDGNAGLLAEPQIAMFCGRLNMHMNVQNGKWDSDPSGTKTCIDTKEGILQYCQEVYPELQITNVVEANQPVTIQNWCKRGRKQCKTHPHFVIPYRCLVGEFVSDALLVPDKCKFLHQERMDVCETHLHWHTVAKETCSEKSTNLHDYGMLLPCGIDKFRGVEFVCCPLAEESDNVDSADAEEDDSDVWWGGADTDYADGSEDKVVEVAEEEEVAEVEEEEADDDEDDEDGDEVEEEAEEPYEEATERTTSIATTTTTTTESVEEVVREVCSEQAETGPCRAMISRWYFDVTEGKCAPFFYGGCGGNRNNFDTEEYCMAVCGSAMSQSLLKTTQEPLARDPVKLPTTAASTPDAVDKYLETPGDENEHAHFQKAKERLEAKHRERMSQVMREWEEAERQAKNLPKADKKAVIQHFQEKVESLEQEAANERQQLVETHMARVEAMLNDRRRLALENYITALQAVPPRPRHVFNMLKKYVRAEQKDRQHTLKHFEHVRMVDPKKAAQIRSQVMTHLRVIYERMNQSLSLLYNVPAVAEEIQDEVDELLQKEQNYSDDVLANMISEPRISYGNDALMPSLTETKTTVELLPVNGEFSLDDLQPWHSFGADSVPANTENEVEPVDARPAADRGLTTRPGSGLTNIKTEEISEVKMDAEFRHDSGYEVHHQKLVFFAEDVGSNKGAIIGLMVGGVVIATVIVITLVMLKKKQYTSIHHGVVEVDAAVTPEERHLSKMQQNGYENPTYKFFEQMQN
Sequence of Histone deacetylase 1 (Q13547 whole entry): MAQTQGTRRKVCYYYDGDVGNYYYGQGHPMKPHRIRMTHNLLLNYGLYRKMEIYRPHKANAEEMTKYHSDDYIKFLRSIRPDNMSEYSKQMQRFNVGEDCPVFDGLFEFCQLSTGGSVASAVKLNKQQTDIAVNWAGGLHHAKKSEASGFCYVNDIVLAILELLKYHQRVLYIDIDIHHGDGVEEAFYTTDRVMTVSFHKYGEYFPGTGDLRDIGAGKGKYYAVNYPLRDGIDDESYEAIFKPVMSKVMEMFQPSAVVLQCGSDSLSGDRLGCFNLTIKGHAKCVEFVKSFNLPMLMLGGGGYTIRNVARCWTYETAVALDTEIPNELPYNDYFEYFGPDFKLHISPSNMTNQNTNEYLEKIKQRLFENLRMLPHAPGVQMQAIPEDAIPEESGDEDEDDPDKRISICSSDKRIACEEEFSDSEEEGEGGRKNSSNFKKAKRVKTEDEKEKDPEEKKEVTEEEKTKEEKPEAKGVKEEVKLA

| SMILES | IC50 (Histone deacetylase 8) [µM] | IC50 [1] [µM] | IC50 (Histone deacetylase 2) [µM] | IC50 (Histone deacetylase 11) [µM] | IC50 [4] [µM] | inhibition [5] | Activity (PC-12 [6]) | Activity (SH-SY5Y [7]) | Activity (PC-12 [8]) | Activity [9] | Activity (Vero) | Activity (PC-12 [12]) | Ratio IC50 (Homo sapiens [13]) | IC50 [14] [µM] | Ratio IC50 (Homo sapiens [15]) | IC50 [16] [µM] | IC50 (Histone deacetylase 1) [µM] | also measured |
| --- | --- | --- | --- | --- | --- | --- | --- | --- | --- | --- | --- | --- | --- | --- | --- | --- | --- | --- |
| Cc1nc2cc(/C=C/C(=O)NO)ccc2c(=O)n1-c1ccccc1 | 3.88 | 0.088 | 1.61 | 1.35 | 17.5 | inactive | Dose-dependent effect | Active | Active | Non-toxic | Non-toxic | Non-toxic |  |  |  |  |  | Activity (Mus musculus [2]): Active; inhibition (PC-12 [3]): Dose-dependent effect; Activity (Mus musculus [10]): tde; Activity (PC-12 [11]): Active |
| Cc1nc2cccc(/C=C/C(=O)NO)c2c(=O)n1-c1ccccc1 | 1.06 | 1.92 | > 10 | > 10 | > 10 |  |  |  |  | Non-toxic | Non-toxic | Non-toxic | 10 | > 50 | < 1 | > 50 | 18.6 |  |
| CCc1nc2cc(F)c(/C=C/C(=O)NO)cc2c(=O)n1CCc1ccccc1 | 0.766 | 0.008 | 5.68 | 4.68 |  | inactive | Dose-dependent effect | Active | Active | Non-toxic | Non-toxic | Non-toxic |  |  |  |  | 1.94 | EC50 (PC-12 [17]): 7.2 µM; EC50 (SH-SY5Y [18]): 4.3 µM; EC50 (SH-SY5Y [19]): 8.6 µM; inhibition (PC-12 [3]): Dose-dependent effect; EC50 (PC-12 [20]): 3.3 µM; Activity (PC-12 [11]): Active |
| CC(/C=C/C(=O)NO)=C\[C@@H](C)C(=O)c1ccc(N(C)C)cc1 |  |  |  |  |  |  | Dose-dependent effect | Active | Active |  |  |  |  |  |  |  |  | inhibition (PC-12 [21]): Active; inhibition (PC-12 [22]): Active |
| Cc1nc2c(/C=C/C(=O)NO)cccc2c(=O)n1-c1ccccc1 | 0.42 | 0.69 | > 10 | > 10 | 29.8 |  |  |  |  | Non-toxic | Non-toxic | Non-toxic | 70 | > 50 | < 1 | > 50 | 48.5 |  |
| CCc1nc2cc(Cc3ccc(C(=O)NO)cc3)ccc2c(=O)n1CCc1ccccc1 | 0.173 | 0.009 |  | 1.32 |  | inactive | Dose-dependent effect | Active | Active | Non-toxic | Non-toxic | Non-toxic |  |  |  |  | 4.85 | EC50 (PC-12 [17]): 9.3 µM; EC50 (SH-SY5Y [18]): 5.5 µM; inhibition (PC-12 [21]): Active; EC50 (SH-SY5Y [19]): 9.8 µM; EC50 (PC-12 [20]): 3.6 µM; inhibition (PC-12 [22]): Active |
| Cc1nc2ccc(/C=C/C(=O)NO)cc2c(=O)n1-c1ccccc1 | 0.609 | 0.032 | 7.48 | 5.22 | 5.14 |  |  |  |  | Non-toxic | Non-toxic | Non-toxic | 65 | > 50 | 19 | > 50 | 2.09 |  |
